# Assay results: doi:10.1101/2024.07.10.602890, “H105A peptide eye drops promote photoreceptor survival in murine and human models of retinal degeneration” (bioRxiv, 2024)
# Ends that are not written are not given here.
# System: rd10 and rd10/Serpinf1−/− mice
# Assay: Retinal histology (H&E), OS length and ONL thickness spider plots after peptide eye drops
# Format: in vivo, mouse
# Settings: for outer nuclear layer (ONL) thickness vs vehicle-treated or untreated eyes / photoreceptor outer segment (OS) length vs vehicle-treated or untreated eyes / ONL thickness (spider plots): daily eye drops 1 mg/ml, P21; for outer nuclear layer (ONL) thickness vs vehicle-treated or untreated eyes / photoreceptor outer segment (OS) length vs vehicle-treated or untreated eyes: rd10 and rd10/Serpinf1−/− mice; for ONL thickness (spider plots): rd10 mice only
# Protocol: Fig. 4: Effect of eyedrops of 17-mer and H105A peptides on photoreceptor morphology of rd10 and rd10/Serpinf1−/− mice (A and B) Histological Evaluation. Representative microphotographs of retina sections from rd10 (A) and rd10/Serpinf1−/− (B) mice treated with 17-mer, H105A, or R99A peptides at 1 mg/ml, or with vehicle (HBSS), compared to wild type C57Bl/6J mice. Sections were stained with hematoxylin and eosin. Spider Plot illustrate the thickness of the outer nuclear layer (ONL) in rd10 (C) and rd10/Serpinf1−/− (D) mice. Five retinas per group were analyzed and each data point represents the average ± SEM per location relative to the optic nerve (ON), analyzed using One-way ANOVA. Statistics for comparisons between H105A and vehicle is indicated by #p < 0.05, #p < 0.05, ##p < 0.01, ###p < 0.001). Statistics for comparisons between H105A and 17-mer is indicated by *p < 0.05. Scale bar = 50 μm.
# Both eyes were oriented before enucleation to allow sectioning along the dorsal/ventral axis. Enucleated eyes from rd10 and rd10 × Serpinf1^−/− mice were incised in the cornea and fixed in 2.5% glutaraldehyde for 20 min and then in 10% neutral buffered formalin at 4°C for at least 48 h, followed by paraffin embedding, sectioning, and staining with either H&E or immunofluorescence procedures, as previously described ([28]). For fluorescence microscopy, antibodies, and 0.1 μg/ml DAPI were used to immunostain and nuclei counterstain the sections, respectively. Antibodies used in the study are in Table S3. Images were acquired using a ZEIS 700 confocal microscope. Fluorescence intensity was quantified using ImageJ as previously described ([14], [26]).
# To generate spider plots, the ONL thickness was measured from images acquired with light microscopy of the retina sections stained with H&E or images of retina sections stained with DAPI with a dorsal-ventral orientation. The ONL thickness in the entire retina sections was measured at 5 different positions from both sides of the optic nerve (ON) using ImageJ, as described before ([28]). Alternatively, for DAPI stained images, a customed macro implemented in ImageJ was used to select only the ONL.
# Figure S2. Effects of extending the timeline or administering eye drops of 17-mer[H105A] peptide every other day in rd10 mic e.
# Eye drops of H105A peptide solution were administered to r d1 0 mice either daily (Fig. S2A) or every other day (Fi g. S 2D). A total of 5 µl of a solution containing H105A peptide at 1 mg/ml in HBSS were applied as eye drops. The vehicle HBSS was added as eye drops in the contralateral eyes. […]
# ONL thickness in r d10 mice compared to vehicle was also observed (Fi g. S 2E), with an improvement in a- […]
# efficacy of peptide H105A eye drops either daily or every other day in an extended timeline to stabilize photoreceptor morphology and light response function loss in r d10 mice, however, these were less efficacious than daily H105A peptide eye drops.
# (A) Scheme showing a timeline of peptide administration via daily eye drops of H105A peptide to r d10 mice between P15 and P2 4. […]
# (B) Representative microphotographs of retinal cross sections of r d1 0 treated as in Fig. S2A and stained with hematoxylin and eosin are shown. […]
# (D) Scheme showing a timeline of peptide administration via eye drops of H105A peptide to rd10 mice starting at P15 every other day until P23. Assays were at P25.
# (E) Representative microphotographs of retinal cross sections of r d1 0 treated as in Fig. S2D and stained […]
# average ± SD per location relative to the ON per genotype by unpaired t-test. *p < 0.05, […]
# (F) ERG of r d1 0 mice at P25 and treated as in Fig. S2D were performed in response to a STR. […]
Sequence,outer nuclear layer (ONL) thickness vs vehicle-treated or untreated eyes,photoreceptor outer segment (OS) length vs vehicle-treated or untreated eyes,ONL thickness (spider plots),"ONL thickness (rd10 mice, daily eye drops 5 μl of 1 mg/ml P15 until P24, assayed at P25)","ONL thickness compared to vehicle (rd10 mice, eye drops every other day P15 until P23, assayed at P25)"
QRTESIIARALYYDLIS [H105A],thicker outer nuclear layer,longer OS,to almost wild-type levels,rescue in the ONL thickness,rescue
QRTESIIHRALYYDLIS [17-mer],thicker outer nuclear layer,longer OS,restored ONL thickness,,
